≈ marks a conversion by molar mass, not a printed value.
Columns and labels:
[1] = physchem; conditions: buffer
[2] = Clearance in CD-1 mouse hepatocytes at 1 uM up to 3 hrs by LC-MS/MS analysis; format: ADME, cell-based, Hepatocyte
[3] = Clearance in CD-1 mouse liver microsomes at 1 uM up to 60 mins by LC-MS/MS analysis; format: ADME, Microsome
[4] = in vitro; conditions: dog, MDCK
[5] = Clearance in human liver microsomes at 1 uM up to 60 mins by LC-MS/MS analysis; format: ADME
[6] = buffer, 24 h
[7] = AUC (0 to last) in NCR nude mouse at 10 mg/kg, po bid after 24 hrs; format: ADME, organism-based; parameters: time 0 - last, dose 10 mg/kg, route oral; conditions: plasma
[8] = Cmax in NCR nude mouse at 10 mg/kg, po bid after 24 hrs; format: ADME, organism-based; parameters: dose 10 mg/kg, route oral; conditions: in vivo

solubility at 24 h [1]	CLhep predicted at 1 µM [5]	Structure (SMILES)	other results
15 µM (≈ 5.68 µg/mL)	11 mL/min/kg	O=C(Nc1ccc(S(=O)(=O)c2ccccc2)cc1)[C@H]1C[C@@H]1c1cccnc1 (single isomer, unassigned; enantiomer 1)	CLhep predicted at 1 µM [2]: 78 mL/min/kg; CLhep predicted at 1 µM [3]: 79 mL/min/kg; Papp A→B at 10 µM [4]: 21.2 ×10⁻⁶ cm/s
23 µM (≈ 10.4 µg/mL)	8 mL/min/kg	O=C(Nc1ccc(S(=O)(=O)c2cnn(CC(F)(F)F)c2)cc1)[C@@H]1C[C@H]1c1cccnc1 (racemic)	
	15 mL/min/kg	O=C(Nc1ccc(S(=O)(=O)c2cnn(C3CCOCC3)c2)cc1)[C@@H]1C[C@H]1c1cccnc1 (racemic)	CLhep predicted at 1 µM [2]: 51 mL/min/kg; CLhep predicted at 1 µM [3]: 77 mL/min/kg
7 µM (≈ 2.85 µg/mL)	9 mL/min/kg	Nc1ccc([C@@H]2C[C@H]2C(=O)NCc2ccc(S(=O)(=O)c3ccccc3)cc2)cn1 (racemic)	
6 µM (≈ 2.36 µg/mL)	10 mL/min/kg	Cc1ccc(S(=O)(=O)c2ccc(NC(=O)[C@@H]3C[C@H]3c3cccnc3)cc2)cn1 (racemic)	
77 µM (≈ 31.6 µg/mL)	11 mL/min/kg	CC(C)n1cc(S(=O)(=O)c2ccc(NC(=O)[C@H]3C[C@@H]3c3cccnc3)cc2)cn1	CLhep predicted at 1 µM [2]: 76 mL/min/kg; CLhep predicted at 1 µM [3]: 80 mL/min/kg; Papp A→B at 10 µM [4]: 9.7 ×10⁻⁶ cm/s
72 µM (≈ 28.5 µg/mL)	8 mL/min/kg	CCn1cc(S(=O)(=O)c2ccc(NC(=O)[C@@H]3C[C@H]3c3cccnc3)cc2)cn1 (racemic)	
1 µM (≈ 0.425 µg/mL)	16 mL/min/kg	Cc1nn(C(C)C)cc1S(=O)(=O)c1ccc(NC(=O)[C@@H]2C[C@H]2c2cccnc2)cc1 (racemic)	
1 µM (≈ 0.457 µg/mL)	9 mL/min/kg	CS(=O)(=O)c1cccc(S(=O)(=O)c2ccc(NC(=O)[C@@H]3C[C@H]3c3cccnc3)cc2)c1 (racemic)	CLhep predicted at 1 µM [2]: 54 mL/min/kg; CLhep predicted at 1 µM [3]: 74 mL/min/kg; Papp A→B at 10 µM [4]: 2.7 ×10⁻⁶ cm/s
15 µM (≈ 5.68 µg/mL)	7 mL/min/kg	O=C(Nc1ccc(S(=O)(=O)c2ccccc2)cc1)[C@@H]1C[C@H]1c1cccnc1 (single isomer, unassigned; enantiomer 2)	
48 µM (≈ 19.7 µg/mL)	12 mL/min/kg	CCCn1cc(S(=O)(=O)c2ccc(NC(=O)[C@@H]3C[C@H]3c3cccnc3)cc2)cn1 (racemic)	CLhep predicted at 1 µM [2]: 59 mL/min/kg; CLhep predicted at 1 µM [3]: 75 mL/min/kg; Papp A→B at 10 µM [4]: 11.5 ×10⁻⁶ cm/s
2.2 µM (≈ 0.818 µg/mL)	15 mL/min/kg	N#CN=C(NCCCCCCOc1ccc(Cl)cc1)Nc1ccncc1 [CHS-828]	
1 µM (≈ 0.428 µg/mL)	6 mL/min/kg	O=S1(=O)N=C(NCc2ccc(S(=O)(=O)c3ccccc3)cc2)Nc2ccncc21	Papp A→B at 10 µM [4]: 0.8 ×10⁻⁶ cm/s
223 µM (≈ 90.4 µg/mL)	19 mL/min/kg	O=C(NCCCCC1CCN(C(=O)c2ccccc2)CC1)[C@@H]1C[C@H]1c1cccnc1 (racemic)	
165 µM (≈ 59 µg/mL)	18 mL/min/kg	CC(C)(C)OC(=O)N1C[C@H]2CCN(C(=O)[C@@H]3C[C@H]3c3cccnc3)[C@H]2C1 (racemic)	
15 µM (≈ 5.89 µg/mL)	15 mL/min/kg	O=C(NCc1ccc(S(=O)(=O)c2ccccc2)cc1)[C@@H]1C[C@H]1c1cccnc1 (racemic)	
133 µM (≈ 47.5 µg/mL)	10 mL/min/kg	CC(C)(C)OC(=O)N1CC2(CCN(C(=O)[C@H]3C[C@@H]3c3cccnc3)C2)C1 (relative stereo)	
1 µM (≈ 0.378 µg/mL)	9 mL/min/kg	O=C(Nc1ccc(S(=O)(=O)c2ccccc2)cc1)[C@@H]1C[C@H]1c1ccncc1 (racemic)	
	16 mL/min/kg	O=C(Nc1ccc(S(=O)(=O)N2CC3CCC(C2)O3)cc1)[C@@H]1C[C@H]1c1cccnc1 (mixture of isomers)	
59 µM (≈ 23.2 µg/mL)	9 mL/min/kg	O=C(NCc1ccc(S(=O)(=O)c2ccccc2)cc1)[C@@H]1C[C@H]1c1ccncc1 (racemic)	
93 µM (≈ 35.9 µg/mL)	13 mL/min/kg	O=C(Nc1ccc(S(=O)(=O)C2CCOCC2)cc1)[C@@H]1C[C@H]1c1cccnc1 (racemic)	

The next lines start with the compound.

Structure (SMILES)	solubility at 24 h [1]	CLhep predicted at 1 µM [5]	other results
Nc1ccc(CNC(=O)Nc2ccc(S(=O)(=O)c3ccccc3)cc2)cn1	99 µM (≈ 37.9 µg/mL)	5 mL/min/kg	
Nc1ccc([C@@H]2C[C@H]2C(=O)Nc2ccc(S(=O)(=O)c3ccccc3)cc2)cn1 (racemic)	36 µM (≈ 14.2 µg/mL)	6 mL/min/kg	
O=C(Nc1ccc(S(=O)(=O)c2ccccc2)cc1)[C@@H]1C[C@H]1c1cccnc1 (racemic)			solubility [6]: 20 µM (≈ 7.57 µg/mL); CLhep predicted at 1 µM [2]: 63 mL/min/kg; CLhep predicted at 1 µM [3]: 76 mL/min/kg; Papp A→B at 10 µM [4]: 24 ×10⁻⁶ cm/s
O=S1(=O)NC(NCc2ccc(S(=O)(=O)N3CCC(N4CCCC4)CC3)cc2)=Nc2ccncc21	104 µM (≈ 52.5 µg/mL)	8 mL/min/kg	Papp A→B at 10 µM [4]: 0.1 ×10⁻⁶ cm/s
CC(C)(O)Cn1cc(S(=O)(=O)c2ccc(NC(=O)[C@@H]3C[C@H]3c3cccnc3)cc2)cn1 (racemic)	155 µM (≈ 68.3 µg/mL)	3 mL/min/kg	
O=C(NCCCCCCOc1ccc(Cl)cc1)[C@@H]1C[C@H]1c1cccnc1 (racemic)	13 µM (≈ 4.85 µg/mL)	19 mL/min/kg	
O=C(Nc1ccc(S(=O)(=O)c2cccc(OC(F)(F)F)c2)cc1)[C@@H]1C[C@H]1c1cccnc1 (racemic)	1 µM (≈ 0.462 µg/mL)	10 mL/min/kg	CLhep predicted at 1 µM [2]: 49 mL/min/kg; CLhep predicted at 1 µM [3]: 69 mL/min/kg; Papp A→B at 10 µM [4]: 7.4 ×10⁻⁶ cm/s
O=C(Nc1ccc(S(=O)(=O)N2CCOCC2)cc1)[C@@H]1C[C@H]1c1cccnc1 (racemic)	88 µM (≈ 34.1 µg/mL)	13 mL/min/kg	
CCCn1cc(S(=O)(=O)c2ccc(NC(=O)[C@H]3C[C@@H]3c3cccnc3)cc2)cn1	16 µM (≈ 6.57 µg/mL)	13 mL/min/kg	AUC(0-t) at 24 h [7]: 126 µM·h; CLhep predicted at 1 µM [2]: 75 mL/min/kg; CLhep predicted at 1 µM [3]: 79 mL/min/kg; Papp A→B at 10 µM [4]: 7.1 ×10⁻⁶ cm/s; Cmax [8]: 34.6 µM
CC(C)n1cc(S(=O)(=O)c2ccc(NC(=O)[C@@H]3C[C@H]3c3cccnc3)cc2)cn1	59 µM (≈ 24.2 µg/mL)	12 mL/min/kg	
CC(C)(C)OC(=O)N1C[C@@H]2CCN(C(=O)[C@@H]3C[C@H]3c3cccnc3)[C@@H]2C1 (racemic)	165 µM (≈ 59 µg/mL)	18 mL/min/kg	
CC(C)n1cc(S(=O)(=O)c2ccc(NC(=O)[C@@H]3C[C@H]3c3cccnc3)cc2)cn1 (racemic)			solubility [6]: 66 µM (≈ 27.1 µg/mL); CLhep predicted at 1 µM [2]: 60 mL/min/kg; CLhep predicted at 1 µM [3]: 75 mL/min/kg; Papp A→B at 10 µM [4]: 10 ×10⁻⁶ cm/s
O=C(Nc1ccc(S(=O)(=O)c2cc(F)cc(F)c2)cc1)[C@@H]1C[C@H]1c1cccnc1 (racemic)	6 µM (≈ 2.49 µg/mL)	12 mL/min/kg	
O=C(/C=C/c1cccnc1)NCCCCC1CCN(C(=O)c2ccccc2)CC1 [DAPORINAD]		15 mL/min/kg	
O=C(Nc1ccc(S(=O)(=O)c2cccc(C(F)(F)F)c2)cc1)[C@@H]1C[C@H]1c1cccnc1 (racemic)	1 µM (≈ 0.446 µg/mL)	10 mL/min/kg	
Cc1c(S(=O)(=O)c2ccc(NC(=O)[C@@H]3C[C@H]3c3cccnc3)cc2)cnn1C(C)C (racemic)	30 µM (≈ 12.7 µg/mL)	19 mL/min/kg	

From ChEMBL document CHEMBL3124860, “Fragment-based identification of amides derived from trans-2-(pyridin-3-yl)cyclopropanecarboxylic acid as potent inhibitors of human nicotinamide phosphoribosyltransferase (NAMPT)” (J Med Chem, 2014)
